Measured values: ChEMBL document CHEMBL4680359, “1-Pyrazolyl-5,6-Disubstituted Indazole Derivatives as LRRK2 Inhibitors for Treating Parkinson's Disease” (ACS Med Chem Lett, 2021)

target: Leucine-rich repeat serine/threonine-protein kinase 2 (Homo sapiens, UniProt Q5S007, G2019S); experiment: Inhibition of GST-tagged truncated human LRRK2 G2019S mutant using fluorescein labeled LRRKtide peptide as substrate preincubated for 15 mins followed by substrate addition measured after 90 mins in presence of ATP at Km concentration by TR-FRET Lanthascreen assay
Sequence (Q5S007 whole entry G2019S, the tested form may be a part): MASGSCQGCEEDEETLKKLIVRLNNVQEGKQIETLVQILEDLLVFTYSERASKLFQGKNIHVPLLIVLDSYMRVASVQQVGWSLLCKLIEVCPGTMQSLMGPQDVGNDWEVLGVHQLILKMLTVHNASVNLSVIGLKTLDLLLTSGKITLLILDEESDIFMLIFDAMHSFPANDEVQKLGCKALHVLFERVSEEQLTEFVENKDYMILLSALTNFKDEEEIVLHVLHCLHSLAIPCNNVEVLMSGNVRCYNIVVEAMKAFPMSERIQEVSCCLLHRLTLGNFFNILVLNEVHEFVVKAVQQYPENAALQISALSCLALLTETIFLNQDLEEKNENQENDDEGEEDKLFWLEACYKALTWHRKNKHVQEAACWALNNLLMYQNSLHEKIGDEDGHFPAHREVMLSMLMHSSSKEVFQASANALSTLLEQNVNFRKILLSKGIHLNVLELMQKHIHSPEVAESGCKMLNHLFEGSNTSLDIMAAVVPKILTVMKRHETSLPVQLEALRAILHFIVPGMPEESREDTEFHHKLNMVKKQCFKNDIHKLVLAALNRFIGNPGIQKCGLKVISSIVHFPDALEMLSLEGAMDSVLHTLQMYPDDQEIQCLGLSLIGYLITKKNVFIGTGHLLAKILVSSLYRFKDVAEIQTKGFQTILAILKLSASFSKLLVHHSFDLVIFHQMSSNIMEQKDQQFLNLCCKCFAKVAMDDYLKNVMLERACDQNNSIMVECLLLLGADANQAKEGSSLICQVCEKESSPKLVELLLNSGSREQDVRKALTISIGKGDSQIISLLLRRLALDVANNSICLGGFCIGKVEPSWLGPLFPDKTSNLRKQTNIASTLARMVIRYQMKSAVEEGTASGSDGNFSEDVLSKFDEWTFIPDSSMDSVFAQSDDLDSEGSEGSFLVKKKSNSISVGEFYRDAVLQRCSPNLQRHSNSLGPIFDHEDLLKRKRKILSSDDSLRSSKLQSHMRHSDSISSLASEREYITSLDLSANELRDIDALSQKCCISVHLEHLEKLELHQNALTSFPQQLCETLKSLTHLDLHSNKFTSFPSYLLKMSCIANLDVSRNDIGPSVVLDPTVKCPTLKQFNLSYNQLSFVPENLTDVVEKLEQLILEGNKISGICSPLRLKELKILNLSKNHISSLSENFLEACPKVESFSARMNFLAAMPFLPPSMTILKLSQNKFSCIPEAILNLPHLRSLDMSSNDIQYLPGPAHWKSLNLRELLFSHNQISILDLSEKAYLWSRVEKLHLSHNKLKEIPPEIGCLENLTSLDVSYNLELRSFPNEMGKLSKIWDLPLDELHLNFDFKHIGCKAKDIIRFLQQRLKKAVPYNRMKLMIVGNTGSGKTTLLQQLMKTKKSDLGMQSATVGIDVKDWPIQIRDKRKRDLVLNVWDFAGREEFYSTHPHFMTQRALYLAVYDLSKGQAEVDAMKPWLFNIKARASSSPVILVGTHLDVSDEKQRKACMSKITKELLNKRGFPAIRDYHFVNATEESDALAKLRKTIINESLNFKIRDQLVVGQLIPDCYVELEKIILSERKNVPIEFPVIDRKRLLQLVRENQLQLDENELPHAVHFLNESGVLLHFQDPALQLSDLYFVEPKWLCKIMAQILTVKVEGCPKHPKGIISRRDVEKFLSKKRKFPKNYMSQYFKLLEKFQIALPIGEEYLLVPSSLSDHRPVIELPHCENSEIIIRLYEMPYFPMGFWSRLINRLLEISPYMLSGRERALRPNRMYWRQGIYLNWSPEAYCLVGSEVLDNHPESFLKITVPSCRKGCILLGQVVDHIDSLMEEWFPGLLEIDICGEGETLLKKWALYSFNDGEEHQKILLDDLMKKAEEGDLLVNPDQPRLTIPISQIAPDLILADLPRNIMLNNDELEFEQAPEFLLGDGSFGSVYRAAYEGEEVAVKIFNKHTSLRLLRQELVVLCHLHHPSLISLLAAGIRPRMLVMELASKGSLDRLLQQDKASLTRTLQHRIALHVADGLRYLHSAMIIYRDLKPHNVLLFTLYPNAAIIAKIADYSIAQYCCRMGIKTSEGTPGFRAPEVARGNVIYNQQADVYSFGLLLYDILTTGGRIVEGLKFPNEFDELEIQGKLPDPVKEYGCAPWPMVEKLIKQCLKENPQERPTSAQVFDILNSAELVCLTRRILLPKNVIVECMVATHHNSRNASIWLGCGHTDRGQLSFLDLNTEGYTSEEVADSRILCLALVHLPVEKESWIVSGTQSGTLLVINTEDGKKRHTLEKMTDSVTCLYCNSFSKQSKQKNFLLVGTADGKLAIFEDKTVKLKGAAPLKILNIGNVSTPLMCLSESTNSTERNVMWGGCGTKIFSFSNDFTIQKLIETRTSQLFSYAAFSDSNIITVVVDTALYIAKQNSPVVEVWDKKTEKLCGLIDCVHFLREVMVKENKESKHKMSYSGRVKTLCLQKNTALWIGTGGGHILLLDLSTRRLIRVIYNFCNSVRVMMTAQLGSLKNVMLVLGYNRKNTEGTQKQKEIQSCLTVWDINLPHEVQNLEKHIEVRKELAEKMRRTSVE

With `OC1(c2cncs2)CCN(c2cc3c(cnn3-c3cnn(C4CC4)c3)cc2Cl)CC1` as the compound, how does the IC50 read?
Its IC50 is 97.5 nM.

For `[2H]C([2H])([2H])OCC12CC(n3cc(-n4ncc5cc(Cl)c(N6CCN([C@]7(C)COC[C@@H]7O)CC6)cc54)cn3)(C1)C2`, which IC50 is on record?
The IC50 was 157 nM.

How did the IC50 turn out when `CO[C@H]1COC[C@H]1N1CCN(c2cc3c(cnn3-c3cnn(C45CC(C4)C5)c3)cc2Cl)CC1` was run?
The IC50 was 104 nM.

`COCC12CC(n3cc(-n4ncc5cc(Cl)c(N6CCN([C@]7(C)COC[C@@H]7O)CC6)cc54)cn3)(C1)C2` was tested. Which IC50 did it give?
The IC50 was less than 80.4 nM.

For `C[C@@]1(N2CCN(c3cc4c(cnn4-c4cnn(C56CC(C5)C6)c4)cc3Cl)CC2)CC[C@H]1O`, which IC50 is on record?
The IC50 was 154 nM.

With `Cc1cc2cnn(-c3cnn(C45CC(C4)C5)c3)c2cc1N1CCN([C@@H]2COC[C@@H]2O)CC1` as the compound, how does the IC50 read?
The IC50 was 259 nM.
